Assays:
MLK1 = MLK1 (Homo sapiens, UniProt P80192); assay: Kinase panel: MLK1; type: biochemical; details: 10 μM EP009
Procedure: (§1) Achieving JAK3 selectivity remains a significant challenge in the development of new small molecules for the treatment of cancer and immune-derived diseases. As such, the inventors employed cell-based screening assays of small-molecule libraries based upon the chemical scaffold of the established JAK3 inhibitor NC1153 (Stepkowski et al., J Immunol. (2005), 175(7):4236-4246) EP009 (FIG. 2A) was selected as a lead compound due to improved intrinsic stability (>95% purity in various solvents at 37° C. for 24 hours; FIG. 3) and high-degree of JAK3 selectivity. To test JAK3 versus JAK2 specificity of EP009, the IL-2/JAK3-dependent Kit225, and IL-3/JAK2-dependent BaF/3 cell lines were used. Kit225 and BaF/3 cells growing in the presence of IL-2 or IL-3, respectively, were treated with ascending concentrations of EP009 for 12 hours and cellular JAK3 and JAK2 tyrosine phosphorylation levels detected by Western blot analysis (FIGS. 2B and 2C). Following densitometric analysis, EP009 was determined to dose-dependently reduce IL-2-mediated JAK3 tyrosine phosphorylation with a cellular 50% inhibitory concentration (IC50) between 10 and 20 μM (FIG. 2B). […] To globally evaluate specificity, the inhibitory activity of EP009 was measured against a panel of protein kinases distributed throughout the kinome using the scanEDGE profiling service (KINOMEscan). […]

p38 MAP kinase = assay: Phospho-p38 in SU-DHL-1 cells (Luminex multiplex); type: cell-based, human; details: 24 hours
Procedure: (§2) FIGS. 8A-8F. Effect of EP009 on ALCL cells is mediated through selective activation of ERK1/2 and JNK1/2 stress signaling pathways, and inhibition of p70 S6 kinase growth signaling pathways. SU-DHL-1 cells were treated with vehicle (PBS) or increasing amounts of EP009 (0-50 μM) for 24 hours. Cells were then lysed, clarified, and subjected to Luminex multiplex analysis to detect phosphorylated (A) ERK1/2, (B) JNK1/2, (C) p70 S6 kinase, (D) IκBα, (E) CREB, and (F) p38. Values represent mean fluorescence intensity (MFI) normalized to corresponding GAPDH MFI, while error bars represent the standard deviation (n=2). Representative data from two independent experiments are shown. Statistical significance was determined using Student's t-test. (*, p<0.05).
(§3) The MILLIPLEX MAP 8-plex Multi-Pathway Signaling Phosphoprotein kit (Millipore) was used to detect phosphorylated ERK1/2 (Thr185/Tyr187), STAT3 (Ser727), JNK1/2 (Thr183/Tyr185), p70 S6 kinase (Thr412), IκBα (Ser32), STAT5A/B (Tyr694/699), CREB (Ser133), and p38 (Thr180/Tyr182). The MILLIPLEX MAP 5-plex STAT Phosphoprotein kit (Millipore) was used to detect phosphorylated STAT1 (Tyr701), STAT2 (Tyr690), STAT3 (Tyr705), STAT5A/B (Tyr694/699), and STAT6 (Tyr641). The MILLIPLEX MAP Human Apoptosis 3-plex kit (Millipore) was used to detect cleaved PARP, cleaved Caspase 3, and total GAPDH for protein normalization.

PIK3CA = PIK3CA (Homo sapiens, UniProt P42336); assay: Kinase panel: PIK3CA; type: biochemical; details: 10 μM EP009
Procedure: as §1

KIT(D816V) = KIT(D816V) (Homo sapiens, UniProt P10721, D816V); assay: Kinase panel: KIT(D816V); type: biochemical; details: 10 μM EP009
Procedure: as §1

KIT = KIT (Homo sapiens, UniProt P10721); assay: Kinase panel: KIT; type: biochemical; details: 10 μM EP009
Procedure: as §1

PIM2 = PIM2 (Homo sapiens, UniProt Q9P1W9); assay: Kinase panel: PIM2; type: biochemical; details: 10 μM EP009
Procedure: as §1

GSK3B = GSK3B (Homo sapiens, UniProt P49841); assay: Kinase panel: GSK3B; type: biochemical; details: 10 μM EP009
Procedure: as §1

p70 S6 kinase = assay: Phospho-p70 S6 kinase in SU-DHL-1 cells (Luminex multiplex); type: cell-based, human; details: 24 hours
Procedure: as §2, §3

IκBα = assay: Phospho-IκBα in SU-DHL-1 cells (Luminex multiplex); type: cell-based, human; details: 24 hours
Procedure: as §2, §3

PDGFRA = PDGFRA (Homo sapiens, UniProt P16234); assay: Kinase panel: PDGFRA; type: biochemical; details: 10 μM EP009
Procedure: as §1

DYRK1B = DYRK1B (Homo sapiens, UniProt Q9Y463); assay: Kinase panel: DYRK1B; type: biochemical; details: 10 μM EP009
Procedure: as §1

MKNK2 = MKNK2 (Homo sapiens, UniProt Q9HBH9); assay: Kinase panel: MKNK2; type: biochemical; details: 10 μM EP009
Procedure: as §1

Chain of MLK1 (P80192 whole entry): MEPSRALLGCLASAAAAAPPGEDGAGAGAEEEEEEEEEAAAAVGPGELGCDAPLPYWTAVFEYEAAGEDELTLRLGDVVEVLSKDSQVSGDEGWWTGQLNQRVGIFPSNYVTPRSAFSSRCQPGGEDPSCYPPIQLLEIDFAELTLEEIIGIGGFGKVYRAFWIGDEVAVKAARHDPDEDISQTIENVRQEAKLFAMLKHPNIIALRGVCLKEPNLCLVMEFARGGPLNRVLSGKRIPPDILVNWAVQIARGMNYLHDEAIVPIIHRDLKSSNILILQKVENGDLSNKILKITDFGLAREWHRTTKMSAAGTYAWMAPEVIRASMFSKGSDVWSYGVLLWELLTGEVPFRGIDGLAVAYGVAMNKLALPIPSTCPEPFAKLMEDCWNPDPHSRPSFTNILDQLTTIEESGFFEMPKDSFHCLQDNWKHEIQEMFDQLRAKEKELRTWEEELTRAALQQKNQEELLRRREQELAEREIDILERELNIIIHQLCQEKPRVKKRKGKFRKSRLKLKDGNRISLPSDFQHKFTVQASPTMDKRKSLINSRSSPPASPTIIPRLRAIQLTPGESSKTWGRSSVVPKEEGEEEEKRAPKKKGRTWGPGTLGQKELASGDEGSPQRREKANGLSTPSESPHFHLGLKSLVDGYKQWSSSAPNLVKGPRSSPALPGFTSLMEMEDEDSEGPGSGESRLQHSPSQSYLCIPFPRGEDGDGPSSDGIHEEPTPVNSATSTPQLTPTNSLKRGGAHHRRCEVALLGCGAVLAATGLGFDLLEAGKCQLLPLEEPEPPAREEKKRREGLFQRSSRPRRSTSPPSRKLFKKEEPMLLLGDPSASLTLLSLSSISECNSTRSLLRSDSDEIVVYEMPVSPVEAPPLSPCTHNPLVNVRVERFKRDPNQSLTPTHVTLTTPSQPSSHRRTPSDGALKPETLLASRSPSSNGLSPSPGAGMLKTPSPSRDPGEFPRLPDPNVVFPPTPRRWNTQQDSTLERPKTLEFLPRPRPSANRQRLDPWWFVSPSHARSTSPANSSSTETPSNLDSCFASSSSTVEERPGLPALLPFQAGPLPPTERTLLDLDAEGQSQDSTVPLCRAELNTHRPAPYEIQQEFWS
Chain of PDGFRA (P16234 24-1089): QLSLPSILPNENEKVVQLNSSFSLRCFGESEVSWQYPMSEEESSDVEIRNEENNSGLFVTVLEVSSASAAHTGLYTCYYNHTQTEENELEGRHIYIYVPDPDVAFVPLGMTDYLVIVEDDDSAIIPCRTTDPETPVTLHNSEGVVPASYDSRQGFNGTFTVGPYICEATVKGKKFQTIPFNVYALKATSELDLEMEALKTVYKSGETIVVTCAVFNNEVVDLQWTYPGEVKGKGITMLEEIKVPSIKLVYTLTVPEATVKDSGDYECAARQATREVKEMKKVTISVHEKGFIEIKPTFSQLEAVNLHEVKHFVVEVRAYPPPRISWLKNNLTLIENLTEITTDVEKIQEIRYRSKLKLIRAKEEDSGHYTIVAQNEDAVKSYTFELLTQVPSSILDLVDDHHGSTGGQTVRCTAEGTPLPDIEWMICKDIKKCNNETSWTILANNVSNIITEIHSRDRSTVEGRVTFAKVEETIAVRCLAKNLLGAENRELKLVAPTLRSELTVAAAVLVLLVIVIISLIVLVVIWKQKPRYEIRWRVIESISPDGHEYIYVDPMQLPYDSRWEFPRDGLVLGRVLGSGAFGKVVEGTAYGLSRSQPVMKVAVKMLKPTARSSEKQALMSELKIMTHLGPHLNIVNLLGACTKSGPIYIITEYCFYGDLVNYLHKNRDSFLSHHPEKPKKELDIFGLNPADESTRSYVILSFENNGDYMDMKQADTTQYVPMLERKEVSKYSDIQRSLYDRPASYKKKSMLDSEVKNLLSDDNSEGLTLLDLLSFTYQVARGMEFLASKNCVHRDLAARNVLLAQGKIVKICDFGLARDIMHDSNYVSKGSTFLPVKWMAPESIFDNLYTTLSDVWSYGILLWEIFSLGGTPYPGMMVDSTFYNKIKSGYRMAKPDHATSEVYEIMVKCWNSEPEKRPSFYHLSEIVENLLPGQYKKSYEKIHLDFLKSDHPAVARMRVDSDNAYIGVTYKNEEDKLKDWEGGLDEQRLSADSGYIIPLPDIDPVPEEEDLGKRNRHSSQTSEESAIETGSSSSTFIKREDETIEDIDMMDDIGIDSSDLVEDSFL
Chain of MKNK2 (Q9HBH9 whole entry): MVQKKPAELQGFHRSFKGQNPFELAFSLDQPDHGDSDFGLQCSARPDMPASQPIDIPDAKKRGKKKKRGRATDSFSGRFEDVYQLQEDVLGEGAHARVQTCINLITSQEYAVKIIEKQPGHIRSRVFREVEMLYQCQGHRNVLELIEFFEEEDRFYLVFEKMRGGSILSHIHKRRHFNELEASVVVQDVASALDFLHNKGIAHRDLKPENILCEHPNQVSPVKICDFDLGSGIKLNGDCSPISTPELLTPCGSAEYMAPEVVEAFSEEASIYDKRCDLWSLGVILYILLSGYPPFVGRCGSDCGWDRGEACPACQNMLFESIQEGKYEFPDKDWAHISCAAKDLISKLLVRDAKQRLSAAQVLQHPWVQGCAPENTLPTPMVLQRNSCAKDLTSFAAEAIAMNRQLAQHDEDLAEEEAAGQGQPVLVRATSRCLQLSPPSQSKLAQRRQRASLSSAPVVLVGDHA
Chain of PIM2 (Q9P1W9 whole entry): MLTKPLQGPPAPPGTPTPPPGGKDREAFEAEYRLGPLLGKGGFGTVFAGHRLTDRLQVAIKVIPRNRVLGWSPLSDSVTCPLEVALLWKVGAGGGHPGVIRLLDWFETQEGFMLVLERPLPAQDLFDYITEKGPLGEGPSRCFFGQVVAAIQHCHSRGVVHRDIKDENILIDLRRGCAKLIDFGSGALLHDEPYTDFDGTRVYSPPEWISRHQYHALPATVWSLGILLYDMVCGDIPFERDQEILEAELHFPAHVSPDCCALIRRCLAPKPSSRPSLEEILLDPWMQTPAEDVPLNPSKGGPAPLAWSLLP
Chain of PIK3CA (P42336 whole entry): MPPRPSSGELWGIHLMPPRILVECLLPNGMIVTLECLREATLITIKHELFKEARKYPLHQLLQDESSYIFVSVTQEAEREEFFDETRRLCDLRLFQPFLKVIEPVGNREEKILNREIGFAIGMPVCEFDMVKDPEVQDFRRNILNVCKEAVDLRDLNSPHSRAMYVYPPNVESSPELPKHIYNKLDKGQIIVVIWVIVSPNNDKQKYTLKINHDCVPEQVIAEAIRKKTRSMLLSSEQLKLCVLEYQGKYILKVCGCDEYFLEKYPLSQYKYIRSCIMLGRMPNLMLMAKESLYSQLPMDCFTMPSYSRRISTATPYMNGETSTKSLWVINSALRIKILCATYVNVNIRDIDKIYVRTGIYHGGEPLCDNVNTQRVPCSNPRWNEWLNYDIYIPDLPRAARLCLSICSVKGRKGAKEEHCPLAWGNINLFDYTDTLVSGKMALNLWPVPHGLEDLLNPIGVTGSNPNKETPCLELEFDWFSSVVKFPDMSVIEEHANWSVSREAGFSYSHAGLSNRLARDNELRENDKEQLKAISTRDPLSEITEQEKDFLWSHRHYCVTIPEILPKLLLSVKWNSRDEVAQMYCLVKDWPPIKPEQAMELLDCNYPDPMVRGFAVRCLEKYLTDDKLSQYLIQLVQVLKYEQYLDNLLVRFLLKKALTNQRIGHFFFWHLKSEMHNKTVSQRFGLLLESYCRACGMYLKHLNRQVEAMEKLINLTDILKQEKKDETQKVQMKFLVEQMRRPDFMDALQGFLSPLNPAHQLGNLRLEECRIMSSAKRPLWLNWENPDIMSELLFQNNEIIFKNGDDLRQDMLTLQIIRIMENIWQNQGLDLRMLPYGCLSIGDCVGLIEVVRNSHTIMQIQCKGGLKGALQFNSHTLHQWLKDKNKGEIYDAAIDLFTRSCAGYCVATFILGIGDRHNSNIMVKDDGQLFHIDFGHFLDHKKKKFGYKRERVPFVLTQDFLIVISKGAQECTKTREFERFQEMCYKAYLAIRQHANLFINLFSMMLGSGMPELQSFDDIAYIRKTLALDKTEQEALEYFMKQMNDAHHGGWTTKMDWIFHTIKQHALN
Chain of KIT (P10721 26-976): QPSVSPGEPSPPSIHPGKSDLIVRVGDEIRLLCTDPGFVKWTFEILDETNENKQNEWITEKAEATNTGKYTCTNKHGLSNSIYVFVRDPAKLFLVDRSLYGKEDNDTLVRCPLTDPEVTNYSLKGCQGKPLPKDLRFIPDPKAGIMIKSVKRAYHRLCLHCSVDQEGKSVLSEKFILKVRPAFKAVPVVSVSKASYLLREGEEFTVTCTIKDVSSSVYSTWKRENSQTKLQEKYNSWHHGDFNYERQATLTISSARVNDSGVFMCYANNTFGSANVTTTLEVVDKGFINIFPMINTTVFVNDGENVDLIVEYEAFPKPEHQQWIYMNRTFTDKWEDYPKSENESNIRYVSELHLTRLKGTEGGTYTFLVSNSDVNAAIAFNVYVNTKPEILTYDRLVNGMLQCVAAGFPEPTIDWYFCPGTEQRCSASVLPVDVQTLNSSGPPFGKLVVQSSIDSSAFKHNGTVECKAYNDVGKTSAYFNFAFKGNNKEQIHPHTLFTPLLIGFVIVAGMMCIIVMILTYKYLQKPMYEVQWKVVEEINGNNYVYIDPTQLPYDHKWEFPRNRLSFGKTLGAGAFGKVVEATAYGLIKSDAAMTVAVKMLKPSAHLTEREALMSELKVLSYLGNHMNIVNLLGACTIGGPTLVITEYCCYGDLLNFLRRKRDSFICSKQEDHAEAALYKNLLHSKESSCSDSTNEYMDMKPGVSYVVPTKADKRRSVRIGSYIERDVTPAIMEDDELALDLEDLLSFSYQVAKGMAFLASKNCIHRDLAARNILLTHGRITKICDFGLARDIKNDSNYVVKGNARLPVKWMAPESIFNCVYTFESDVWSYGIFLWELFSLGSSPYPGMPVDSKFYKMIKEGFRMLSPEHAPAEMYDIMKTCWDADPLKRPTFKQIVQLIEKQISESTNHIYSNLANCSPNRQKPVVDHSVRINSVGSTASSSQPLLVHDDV
Chain of KIT(D816V) (P10721 26-976 D816V): as the sequence (P10721 26-976) above, with D791V counted along it

SMILES: C=C1CCCCCCCCCC(CO)C1=O (stereo not drawn) [EP009, 2-(Hydroxymethyl)-12-methylenecyclododecanone]
- Kinase Activity (% of Control) (MLK1): 100 % of Control
- p38 MAP kinase phosphorylation status (p38 MAP kinase): No statistically significant change
- Kinase Activity (% of Control) (PIK3CA): 76 % of Control
- Kinase Activity (% of Control) (KIT(D816V)): 100 % of Control
- Kinase Activity (% of Control) (KIT): 100 % of Control
- Kinase Activity (% of Control) (PIM2): 100 % of Control
- Kinase Activity (% of Control) (GSK3B): 100 % of Control
- constitutive phosphorylation of p70 S6 kinase (p70 S6 kinase): decreased in a dose-dependent manner
- IκBα phosphorylation status (IκBα): No statistically significant change
- Kinase Activity (% of Control) (PDGFRA): 100 % of Control
- Kinase Activity (% of Control) (DYRK1B): 100 % of Control
- Kinase Activity (% of Control) (MKNK2): 100 % of Control

— patent publication US9371265B2, “Compositions and methods related to inhibitors of JAK kinase” (EP PHARMA, INC., priority 2012, dated 2016)
